Where “and” joins values, the source holds several entries; their conditions need not be identical. Equal values may be shown once. Entries after “also recorded” stand apart in the source; their conditions may differ. Marks after values point to notes of the source that are not given here.
Columns and labels:
[1] = Docetaxel dissolution study, methanol/water 15/85, USP Apparatus II; format: physicochemical; conditions: methanol/water 15/85 (v/v), 37° C., pH 7, USP Apparatus II 75 rpm
Protocol: The procedures used to determine the dissolution rates are as follows. […] Beads were transferred to a stainless steel mesh container and placed in the dissolution bath containing methanol/water 50/50 (v/v) media at 37° C., pH 7, and a USP Apparatus II (Paddle), operating at 75 rpm. At 10, 20, 30, 60, and 90 minutes, a 5 mL aliquot was removed, filtered through a 0.22 μm filter and analyzed on a UV/VIS spectrophotometer at 227 nm. Absorbance values of the samples were compared to those of standard solutions prepared in dissolution media to determine the amount of material dissolved. […] At 5, 15, 30, 60, 120 and 225 minutes, a 5 mL aliquot was removed, filtered through a 0.22 μm filter, and analyzed on a UV/VIS spectrophotometer at 232 nm. Absorbance values of the samples were compared to those of standard solutions prepared in dissolution media to determine the amount of material dissolved.
At 5, 15, 30, 60, 120 and 225 minutes, a 5 mL aliquot was removed, filtered through a 0.22 μm filter, and analyzed on a UV/VIS spectrophotometer at 232 nm. Absorbance values of the samples were compared to those of standard solutions prepared in dissolution media to determine the amount of material dissolved.

[2] = Particle size analysis (light obscuration / laser diffraction); format: physicochemical
Protocol: Particle size was analyzed by both light obscuration and laser diffraction methods. An Particle Sizing Systems AccuSizer 780 SIS system was used for the light obscuration method and Shimadzu SALD-7101 was used for the laser diffraction method.
The vials were vortexed for approximately 10 seconds and then sonicated in a sonic bath approximately 1 minute.
The vial was vortexed for approximately 10 seconds and then sonicated in a sonic bath for approximately 2 minutes. This suspension was used for laser diffraction analysis. Unused suspension was poured into a 125 mL particle-free plastic bottle, which was then filled to approximately 100 mL with filtered dispersant. The suspension was vortex for approximately 10 seconds and then sonicated in the sonic bath for approximately 2 minutes. This diluted suspension was used for light obscuration analysis.
A background test was first performed prior to analyzing particles on the AccuSizer 780 SIS. A new particle-free plastic bottle was filled with blank suspension solution by pumping from a reservoir, using a peristaltic pump, through a 0.22 μm Millipore filter and into the bottle. A background analysis was run to ensure the particle/mL count was below 100 particles/mL. […] Once the analysis was completed, the background data was removed and any measurement with less than four counts was removed. […]

[3] = BET specific surface area analysis; format: physicochemical
Protocol: As used herein, the “specific surface area” (SSA) is the total surface area of the taxane particle per unit of taxane mass as measured by the Brunauer-Emmett-Teller (“BET”) isotherm by the following method: a known mass between 200 and 300 mg of the analyte is added to a 30 mL sample tube. […] The automated test is then carried out using the BETWIN® software package and the surface area of each sample is subsequently calculated. As will be understood by those of skill in the art, the “taxane particles” can include both agglomerated taxane particles and non-agglomerated taxane particles; since the SSA is determined on a per gram basis it takes into account both the larger agglomerated and smaller non-agglomerated taxane particles in the composition. The agglomerated taxane particles are defined herein as individual taxane particles that are formed by the agglomeration of smaller particles which fuse together forming the larger individual taxane particles, all of which occurs during the processing of the taxane particles. […]
A known mass between 200 and 300 mg of the analyte was added to a 30 mL sample tube. […] The automated test was then carried out using the BETWIN® software package and the surface area of each sample was subsequently calculated.

[4] = Paclitaxel dissolution study, methanol/water 50/50, USP Apparatus II; format: physicochemical; conditions: methanol/water 50/50 (v/v), 37° C., pH 7, USP Apparatus II 75 rpm
Protocol: Beads were transferred to a stainless steel mesh container and placed in the dissolution bath containing methanol/water 50/50 (v/v) media at 37° C., pH 7, and a USP Apparatus II (Paddle), operating at 75 rpm. […] Absorbance values of the samples were compared to those of standard solutions prepared in dissolution media to determine the amount of material dissolved. […] Absorbance values of the samples were compared to those of standard solutions prepared in dissolution media to determine the amount of material dissolved.
Beads were transferred to a stainless steel mesh container and placed in the dissolution bath containing methanol/water 50/50 (v/v) media at 37° C., pH 7, and a USP Apparatus II (Paddle), operating at 75 rpm. […] Absorbance values of the samples were compared to those of standard solutions prepared in dissolution media to determine the amount of material dissolved.

[5] = not told, pH 4
Protocol: Receptor Fluid: The receptor fluid consisted of 60 vol %/40 vol % methanol/water at pH 4 with 0.01 wt % NaN3 (added as a preservative). […] After mixing and degassing the Receptor Fluid it was filtered through a ZapCap CR 0.2 μm membrane under vacuum; the Receptor Fluid, so filtered, was stirred for an additional 20 minutes under vacuum.

[6] = tested on: UM-UC-3 bladder cancer cell line (ATCC-CRL-1749) tumors; test: UM-UC-3 xenograft study, H&E histology and immunohistochemistry of tumor site tissue; format: in vivo, mouse
[7] = IV docetaxel 3 cycles, of 7 tumors measured, day of death or euthanasia
[8] = mouse, in vivo, iv
Protocol: (§1) Tumor volume was determined with calipers. […] Animals were weighed 2×/week.

[9] = tested on: UM-UC-3 bladder cancer cell line (ATCC-CRL-1749) tumors; test: Human bladder cancer (UM-UC-3) mouse xenograft study, tumor volume; format: in vivo
Protocol: as §1
At day 18 after tumor implant, when average tumor size was between 50-325 mm^3, animals were sorted into five groups with equal average tumor sizes and were treated as shown in Table 8 below.
The second treatments (2nd cycle) occurred 7 days following first treatment (1st cycle) and third treatments (3rd cycle) occurred 14 days following the first treatment. The docetaxel solution IV was administered via the tail vein.
Vehicle (Control): Diluted 1 ml of the 1% Polysorbate 80/8% Ethanol in normal saline (0.9% Sodium Chloride for Injection) reconstitution solution with 1.5 mL of normal saline (0.9% Sodium Chloride for Injection, USP). […] Vigorously hand shook the vial with inversions for 1 minute. […] Allowed the suspension to sit undisturbed for at least 5 minutes to reduce entrapped air and foam. […] Vortexed to mix.
Tumor volumes were determined 2×/week for the duration of the study (61 days).

[10] = IV Docetaxel 3 cycles, 2 animals
[11] = IV Docetaxel 3 cycles, individual animals

CC(=O)O[C@@]12CO[C@@H]1C[C@H](O)[C@@]1(C)C(=O)[C@H](O)C3=C(C)[C@@H](OC(=O)[C@H](O)[C@@H](NC(=O)OC(C)(C)C)c4ccccc4)C[C@@](O)([C@@H](OC(=O)c4ccccc4)[C@H]21)C3(C)C [Docetaxel Raw Material, docetaxel]
Dissolution (30 min) [1]: 11%

CC(=O)O[C@H]1C(=O)[C@@]2(C)[C@H]([C@H](OC(=O)c3ccccc3)[C@]3(O)C[C@H](OC(=O)[C@H](O)[C@@H](NC(=O)c4ccccc4)c4ccccc4)C(C)=C1C3(C)C)[C@]1(OC(C)=O)CO[C@@H]1C[C@@H]2O [Paclitaxel Raw Material, paclitaxel]
Number Mean [2]: 1.16 um
Surface Area [3]: 10.4 m^2/g
Dissolution (30 min) [4]: 18%

CC(=O)O[C@H]1C(=O)[C@@]2(C)[C@H]([C@H](OC(=O)c3ccccc3)[C@]3(O)C[C@H](OC(=O)[C@H](O)[C@@H](NC(=O)c4ccccc4)c4ccccc4)C(C)=C1C3(C)C)[C@]1(OC(C)=O)CO[C@@H]1C[C@@H]2O [paclitaxel]
solubility in the Receptor Fluid [5]: sufficient to maintain sink conditions

docetaxel
general histological observations (H&E) ([6]; Docetaxel solution IV 3 cycles): many viable appearing tumor masses with some macrophage and occasional lymphocytic response along with some tumor necrosis
Maximum size of viable invasive carcinoma on the slide >10 mm, number of animals [6, 10]: 2*
Percentage of tumor showing necrosis 11-50%, number of animals [6, 10]: 1
Percentage of tumor showing necrosis 50-90%, number of animals [6, 10]: 1
Macrophage infiltrate density Mild, number of animals ([6]; IV Docetaxel 3 cycles, 2 animals, H&E and CD68): 2
Maximum tumor size on slide [6, 11]: 11 mm and 15 mm
tumors with docetaxel levels above the limit of quantitation (1 ng/g) [7]: 1
initial animal weight loss [8]: generally greater
signs of peripheral neuropathy [8]: greater signs of peripheral neuropathy
tumor volume ([9]; Docetaxel solution 30 mg/kg IV, 3 weekly cycles, to Day 61 post implant): subsequently increased; also recorded: somewhat effective at treating small tumors, but not very effective in treating large tumors
Necropsy volume [9, 11]: 2872 mm^3 and 1652 mm^3

Reference: patent US20190209515A1, “Treatment of Bladder Cancer by Intratumoral Injection of Taxane Particles” (CRITITECH, INC., priority 2018, published 2019)
